For the assay, the target named is T1, recombinant human KLK5 (Homo sapiens, UniProt Q9Y337).
T1 construct: purchased Novoprotein or R&D Systems C415 or 1108-SE
T1 sequence (Q9Y337 23-293): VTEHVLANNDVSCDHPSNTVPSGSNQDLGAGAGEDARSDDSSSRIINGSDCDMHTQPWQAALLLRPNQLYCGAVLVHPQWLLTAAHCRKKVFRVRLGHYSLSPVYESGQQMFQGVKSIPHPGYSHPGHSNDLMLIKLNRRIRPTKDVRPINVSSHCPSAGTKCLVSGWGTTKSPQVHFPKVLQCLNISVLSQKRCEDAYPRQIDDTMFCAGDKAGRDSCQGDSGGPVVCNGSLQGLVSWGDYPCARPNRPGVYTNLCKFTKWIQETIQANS
In words: Kallikrein (KLK) 5 enzymatic assay (Boc-VPR-AMC fluorogenic substrate). Conditions: recombinant human KLK5 0.1 μg/well, Boc-VPR-AMC 100 μM, pH 7.5, room temperature, 1% DMSO; tested a minimum of three times. The assay is classed as biochemical. The method in brief: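 Fluorogenic rate assay at pH 7.5 (0.1 M NaH2PO4, 1% DMSO, room temperature), run at least three times per compound. Compound was premixed with 0.1 μg/well recombinant human KLK5 before adding 100 μM Boc-VPR-AMC; AMC release was read at ex 380/em 460 nm, and IC50 derived from inhibition of rate vs DMSO control.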

SMILES strings stand for the structures. Where only a bound is given, the exact number is not on record here.

Take `CC(C)(C)OC(=O)N1CCC2(CC1)C[C@@H](Oc1ccccc1CC(=O)O)c1cc(-c3ccc4ccnc(N)c4c3)ccc12` [Compound 395b, (R)-2-(2-((5-(1-aminoisoquinolin-7-yl)-1′-(tert-butoxycarbonyl)-2,3-dihydrospiro[indene-1,4′-piperidin]-3-yl)oxy)phenyl)acetic acid]: the concentration for half-maximal inhibition (IC50) was less than 1000 nM.

For `COC(=O)N1CCC2(CC1)C[C@H](Oc1ccccc1CC(=O)O)c1cc(-c3cccc4c(N)nccc34)ccc12` [Compound 396d, (S)-2-(2-((5-(1-aminoisoquinolin-5-yl)-1′-(methoxycarbonyl)-2,3-dihydrospiro[indene-1,4′-piperidin]-3-yl)oxy)phenyl)acetic acid], the IC50 is less than 1000 nM. For `COC(=O)N1CCC2(CC1)C[C@H](Oc1ccccc1CC(=O)O)c1cc(-c3ccc4ccnc(N)c4c3)ccc12` [Compound 397b, (S)-2-(2-((5-(1-aminoisoquinolin-7-yl)-1′-(methoxycarbonyl)-2,3-dihydrospiro[indene-1,4′-piperidin]-3-yl)oxy)phenyl)acetic acid], the IC50 was less than 1000 nM. As for `COC(=O)N1CCC2(CC1)C[C@@H](Oc1ccccc1CC(=O)O)c1cc(-c3cccc4c(N)nccc34)ccc12` [Compound 398d, (R)-2-(2-((5-(1-aminoisoquinolin-5-yl)-1′-(methoxycarbonyl)-2,3-dihydrospiro[indene-1,4′-piperidin]-3-yl)oxy)phenyl)acetic acid], the figure is less than 1000 nM; as for `COC(=O)N1CCC2(CC1)C[C@@H](Oc1ccccc1CC(=O)O)c1cc(-c3ccc4ccnc(N)c4c3)ccc12` [Compound 399b, (R)-2-(2-((5-(1-aminoisoquinolin-7-yl)-1′-(methoxycarbonyl)-2,3-dihydrospiro[indene-1,4′-piperidin]-3-yl)oxy)phenyl)acetic acid], less than 1000 nM.

For `Nc1nccc2c(-c3ccc4c(c3)C(COc3ccccc3CC(=O)O)=CC43CCCC3)cccc12` [Compound 400f, 2-(2-((5′-(1-aminoisoquinolin-5-yl)spiro[cyclopentane-1,1′-inden]-3′-yl)methoxy)phenyl)acetic acid], the IC50 is less than 1000 nM. As for `Nc1nccc2ccc(-c3ccc4c(c3)C(COc3ccccc3CC(=O)O)=CC43CCCC3)cc12` [Compound 401b, 2-(2-((5′-(1-aminoisoquinolin-7-yl)spiro[cyclopentane-1,1′-inden]-3′-yl)methoxy)phenyl)acetic acid], the IC50 was less than 1000 nM.

With `Nc1nccc2ccc(-c3ccc4c(c3)C(COc3ccccc3CC(=O)O)CC43CCCC3)cc12` (stereo not drawn) [Compound 402a, 2-(2-((5′-(1-aminoisoquinolin-7-yl)-2′,3′-dihydrospiro[cyclopentane-1,1′-inden]-3′-yl)methoxy)phenyl)acetic acid], the IC50 is 1000 to 10000 nM. With `Nc1nccc2c(-c3ccc4c(c3)C(COc3ccccc3CC(=O)O)CC43CCCC3)cccc12` (stereo not drawn) [Compound 403a, 2-(2-((5′-(1-aminoisoquinolin-5-yl)-2′,3′-dihydrospiro[cyclopentane-1,1′-inden]-3′-yl)methoxy)phenyl)acetic acid], the IC50 is less than 1000 nM. With `CCOC(=O)N1CCC2(CC1)CC(Oc1cccc(C)c1CC(=O)O)c1cc(-c3ccc4ccnc(N)c4c3)ccc12` (stereo not drawn) [Compound 404c, 2-(2-((5-(1-aminoisoquinolin-7-yl)-1′-(ethoxycarbonyl)-2,3-dihydrospiro[indene-1,4′-piperidin]-3-yl)oxy)-6-methylphenyl)acetic acid] the figure was less than 1000 nM; with `CCOC(=O)N1CCC2(CC1)CC(Oc1cccc(C)c1CC(=O)O)c1cc(-c3cccc4c(N)nccc34)ccc12` (stereo not drawn) [Compound 405b, 2-(2-((5-(1-aminoisoquinolin-5-yl)-1′-(ethoxycarbonyl)-2,3-dihydrospiro[indene-1,4′-piperidin]-3-yl)oxy)-6-methylphenyl)acetic acid], less than 1000 nM; with `CC(=O)N1CCC2(CC1)CC(Oc1cccc(C)c1CC(=O)O)c1cc(-c3ccc4ccnc(N)c4c3)ccc12` (stereo not drawn) [Compound 406c, 2-(2-((1′-acetyl-5-(1-aminoisoquinolin-7-yl)-2,3-dihydrospiro[indene-1,4′-piperidin]-3-yl)oxy)-6-methylphenyl)acetic acid], less than 1000 nM. As for `CC(=O)N1CCC2(CC1)CC(Oc1cccc(C)c1CC(=O)O)c1cc(-c3cccc4c(N)nccc34)ccc12` (stereo not drawn) [Compound 407b, 2-(2-((1′-acetyl-5-(1-aminoisoquinolin-5-yl)-2,3-dihydrospiro[indene-1,4′-piperidin]-3-yl)oxy)-6-methylphenyl)acetic acid], the figure is less than 1000 nM; as for `COC(=O)N1CCC2(CC1)CC(Oc1cc(F)ccc1CC(=O)O)c1cc(-c3ccc4ccnc(N)c4c3)ccc12` (stereo not drawn) [Compound 408f, 2-(2-((5-(1-aminoisoquinolin-7-yl)-1′-(methoxycarbonyl)-2,3-dihydrospiro[indene-1,4′-piperidin]-3-yl)oxy)-4-fluorophenyl)acetic acid], less than 1000 nM; as for `COC(=O)N1CCC2(CC1)CC(Oc1cc(F)ccc1CC(=O)O)c1cc(-c3cccc4c(N)nccc34)ccc12` (stereo not drawn) [Compound 409b, 2-(2-((5-(1-aminoisoquinolin-5-yl)-1′-(methoxycarbonyl)-2,3-dihydrospiro[indene-1,4′-piperidin]-3-yl)oxy)-4-fluorophenyl)acetic acid], less than 1000 nM. As for `COC(=O)N1CCC2(CC1)CC(Oc1cc(C#N)ccc1CC(=O)O)c1cc(-c3ccc4ccnc(N)c4c3)ccc12` (stereo not drawn) [Compound 410d, 2-(2-((5-(1-aminoisoquinolin-7-yl)-1′-(methoxycarbonyl)-2,3-dihydrospiro[indene-1,4′-piperidin]-3-yl)oxy)-4-cyanophenyl)acetic acid], the figure is less than 1000 nM; as for `COC(=O)N1CCC2(CC1)CC(Oc1cc(C#N)ccc1CC(=O)O)c1cc(-c3cccc4c(N)nccc34)ccc12` (stereo not drawn) [Compound 411b, 2-(2-((5-(1-aminoisoquinolin-5-yl)-1′-(methoxycarbonyl)-2,3-dihydrospiro[indene-1,4′-piperidin]-3-yl)oxy)-4-cyanophenyl)acetic acid], less than 1000 nM; as for `COC(=O)N1CCC2(CC1)CC(Oc1cc(C)ccc1CC(=O)O)c1cc(-c3ccc4ccnc(N)c4c3)ccc12` (stereo not drawn) [Compound 412c, 2-(2-((5-(1-aminoisoquinolin-7-yl)-1′-(methoxycarbonyl)-2,3-dihydrospiro[indene-1,4′-piperidin]-3-yl)oxy)-4-methylphenyl)acetic acid], less than 1000 nM.

On to `COC(=O)N1CCC2(CC1)CC(Oc1cc(C)ccc1CC(=O)O)c1cc(-c3cccc4c(N)nccc34)ccc12` (stereo not drawn) [Compound 413b, 2-(2-((5-(1-aminoisoquinolin-5-yl)-1′-(methoxycarbonyl)-2,3-dihydrospiro[indene-1,4′-piperidin]-3-yl)oxy)-4-methylphenyl)acetic acid], for which the IC50 was less than 1000 nM. `Nc1nccc2ccc(-c3ccc4c(c3)[C@H](Oc3ccccc3CC(=O)O)CC43CCN(CC(=O)O)CC3)cc12` [Compound 414c, (R)-2-(2-((5-(1-aminoisoquinolin-7-yl)-1′-(carboxymethyl)-2,3-dihydrospiro[indene-1,4′-piperidin]-3-yl)oxy)phenyl)acetic acid]: the IC50 was less than 1000 nM. As for `Nc1nccc2c(-c3ccc4c(c3)[C@H](Oc3ccccc3CC(=O)O)CC43CCN(CC(=O)O)CC3)cccc12` [Compound 415b, (R)-2-(2-((5-(1-aminoisoquinolin-5-yl)-1′-(carboxymethyl)-2,3-dihydrospiro[indene-1,4′-piperidin]-3-yl)oxy)phenyl)acetic acid], the figure is less than 1000 nM; as for `CCCN1CCC2(CC1)C[C@@H](Oc1ccccc1CC(=O)O)c1cc(-c3ccc4ccnc(N)c4c3)ccc12` [Compound 416c, (R)-2-(2-((5-(1-aminoisoquinolin-7-yl)-1′-propyl-2,3-dihydrospiro[indene-1,4′-piperidin]-3-yl)oxy)phenyl)acetic acid], less than 1000 nM. In the case of `CCCN1CCC2(CC1)C[C@@H](Oc1ccccc1CC(=O)O)c1cc(-c3cccc4c(N)nccc34)ccc12` [Compound 417b, (R)-2-(2-((5-(1-aminoisoquinolin-5-yl)-1′-propyl-2,3-dihydrospiro[indene-1,4′-piperidin]-3-yl)oxy)phenyl)acetic acid], the IC50 was less than 1000 nM. As for `CCN1CCC2(CC1)C[C@@H](Oc1ccccc1CC(=O)O)c1cc(-c3cccc4c(N)nccc34)ccc12` [Compound 418c, (R)-2-(2-((5-(1-aminoisoquinolin-5-yl)-1′-ethyl-2,3-dihydrospiro[indene-1,4′-piperidin]-3-yl)oxy)phenyl)acetic acid], the figure is less than 1000 nM; as for `COc1ccc(CC(=O)O)c(O[C@@H]2CCc3ccc(-c4ccc5ccnc(N)c5c4)cc32)c1` [Compound 419c, (R)-2-(2-((6-(1-aminoisoquinolin-7-yl)-2,3-dihydro-1H-inden-1-yl)oxy)-4-methoxyphenyl)acetic acid], less than 1000 nM. As for `COc1ccc(CC(=O)O)c(O[C@@H]2CCc3ccc(-c4cccc5c(N)nccc45)cc32)c1` [Compound 420b, (R)-2-(2-((6-(1-aminoisoquinolin-5-yl)-2,3-dihydro-1H-inden-1-yl)oxy)-4-methoxyphenyl)acetic acid], the figure is less than 1000 nM; as for `Nc1nccc2ccc(-c3ccc4c(c3)[C@H](Oc3cc(F)ccc3CC(=O)O)CC4)cc12` [Compound 421c, (R)-2-(2-((6-(1-aminoisoquinolin-7-yl)-2,3-dihydro-1H-inden-1-yl)oxy)-4-fluorophenyl)acetic acid], less than 1000 nM.

Usually IC50 stands for the midpoint of a concentration-inhibition curve.

The values are drawn from US20240239752A1, “BICYCLIC HETEROAROMATIC INHIBITORS OF KLK5” (BioCryst Pharmaceuticals, Inc., priority 2021, published 2024).
